{
  "source": "patent US20040005342A1",
  "about": "“Topical administration of ascorbic acid to reinforce the cohesion of the dermo-epidermal junction” (SOCIETE L'OREAL S.A., priority 2002, published 2004)",
  "format_in_all_cases": "cell-based, human",
  "key": {"collagen VII": {"system": "collagen VII", "test": "Immunofluorescence of collagen VII in reconstructed skin sections"}, "tenascin": {"system": "tenascin", "test": "Immunofluorescence of tenascin in reconstructed skin sections"}, "[1]": {"system": "fibroblasts in the lattice of reconstructed skin", "test": "Reconstructed skin grown with vitamin C in the culture medium: number of fibroblasts", "settings": "vitamin C in culture medium throughout the phase of emersion", "text": "This increase is associated with a greater production of certain proteins of the extracellular matrix, in particular in the sub-epidermal zone. The most spectacular results are found in this region of the dermo-epidermal junction, with a more perpendicular arrangement of the basal keratinocytes and an increased synthesis of major components of the basal membrane, for instance tenascin and collagen VII."}, "[2]": {"settings": "reconstructed skin, vitamin CPMg 2.8′10^−4 M, 7-day emersion phase, × control"}},
  "data": [
    {"smiles": "O=C1O[C@H]([C@@H](O)CO)C([O-])=C1OP(=O)([O-])[O-].O=C1O[C@H]([C@@H](O)CO)C([O-])=C1OP(=O)([O-])[O-].[Mg+2].[Mg+2].[Mg+2]", "note": "[Vitamin C, magnesium ascorbyl phosphate]", "values": [
      {"measurement": "Intensity and thickness of the zone of collagen VII fluorescence at the dermo-epidermal junction, versus sample without vitamin C", "setting": "collagen VII; microscopic observation, FIG. 1", "value": "much greater"},
      {"measurement": "Collagen VII fluorescence intensity/unit of length", "setting": "collagen VII; reconstructed skin, vitamin CPMg 2.8′10^−4 M during 7-day emersion phase, image analysis, normalized to identical length of dermo-epidermal junction, control 1.35", "value": 2.50, "unit": "arbitrary units"},
      {"measurement": "Collagen VII fluorescence intensity/unit of length, factor versus control", "setting": "collagen VII; [2]", "value": 1.85},
      {"measurement": "Intensity and thickness of the zone of tenascin fluorescence (dermo-epidermal junction and superficial dermis), versus sample without vitamin C", "setting": "tenascin; microscopic observation, FIG. 2", "value": "much larger"},
      {"measurement": "Tenascin fluorescence intensity/unit of length", "setting": "tenascin; reconstructed skin, vitamin CPMg 2.8′10^−4 M during 7-day emersion phase, image analysis, standardized to identical length of dermo-epidermal junction, control 6.4", "value": 11.54, "unit": "arbitrary units"},
      {"measurement": "Tenascin fluorescence intensity/unit of length, factor versus control", "setting": "tenascin; [2]", "value": 1.80},
      {"measurement": "Number of fibroblasts in the lattice", "setting": "[1]", "value": "very large increase"}
    ]}
  ]
}
